Data published in paper PMC7162861, “Synthesis, cytotoxicity, pharmacokinetic profile, binding with DNA and BSA of new imidazo[1,2-a]pyrazine-benzo[d]imidazol-5-yl hybrids” (Scientific Reports, 2020).

Assays:
[1] = Experimental log P, shake-flask method; assay type: physicochemical; details: n-octanol/phosphate buffer pH 7.4, read-out: Exp. Log P
Experimental: Partition coefficients or experimental log P values of all synthesized compounds (9–23, 30 and 31) were calculated using the shake-flask method. Log P values were determined using n-octanol and phosphate buffer (pH = 7.4) at 10:1 ratio of volumes. Stock solutions (10^−3 M) of compounds were prepared in DMSO. Glass vials were used to make final solutions i.e. stock solution (250 µL) and phosphate buffer (125 µL). To record the absorbance, wavelength was selected based on λmax of the respective compound. Initial absorbance (Ai) for every compound was noted consuming the stock solution in the buffer phase. Now added n-octanol to every vial and shaken well using a mechanical shaker for 50 minutes. To get separation of both phases, glass vials were centrifuged for 35 min. at 2500 rpm. Then, the layer of octanol was separated from glass vial. The final absorbance (Af) of each compound was recorded by using the buffer layer. The values of P for compounds were determined by the following equation (Eq. 8):8 P=Ai−Af/Af×Vw/Vo

EtBr-CT-DNA complex = test system: EtBr-CT-DNA complex; parameters: method as in printed; details: used in Eq. 4; ref not given; cited from earlier work

Clc1ccc(-c2cn3ccnc3c(-c3ccc4c(c3)ncn4C3CCCCC3)n2)cc1 [Compound 18, 6-(4-chlorophenyl)-8-(1-cyclohexyl-1H-benzo[d]imidazol-5-yl)imidazo[1,2-a]pyrazine]
melting point: 193 to 196 °C
logP [1]: 1.34

Brc1ccc(-c2cn3ccnc3c(-c3ccc4c(c3)ncn4C3CCCCC3)n2)cc1 [Compound 19, 6-(4-bromophenyl)-8-(1-cyclohexyl-1H-benzo[d]imidazol-5-yl)imidazo[1,2-a]pyrazine]
melting point: 195 to 198 °C
logP [1]: 2.05

COc1ccccc1-c1cn2ccnc2c(-c2ccc3c(c2)ncn3C2CCCCC2)n1 [Compound 20, 8-(1-cyclohexyl-1H-benzo[d]imidazol-5-yl)-6-(2-methoxyphenyl)imidazo[1,2-a]pyrazine]
melting point: 195 to 198 °C
logP [1]: 1.88

Fc1ccccc1-c1cn2ccnc2c(-c2ccc3c(c2)ncn3C2CCCCC2)n1 [Compound 21, 8-(1-cyclohexyl-1H-benzo[d]imidazol-5-yl)-6-(2-fluorophenyl)imidazo[1,2-a]pyrazine]
melting point: 190 to 193 °C
logP [1]: 1.77

FC(F)(F)c1cccc(-c2cn3ccnc3c(-c3ccc4c(c3)ncn4C3CCCCC3)n2)c1 [Compound 23, 8-(1-cyclohexyl-1H-benzo[d]imidazol-5-yl)-6-(3-(trifluoromethyl)phenyl)imidazo[1,2-a]pyrazine]
melting point: 196 to 199 °C
logP [1]: 1.67

CC[n+]1c(-c2ccccc2)c2cc(N)ccc2c2ccc(N)cc21 [ethidium bromide]
known binding constant KEtBr (EtBr-CT-DNA complex): 1e+07 M⁻¹
